Converted amounts (≈) assume the structure as drawn.

In assay [1] the test system is Staphylococcus aureus. The experiment in a line: Antibacterial activity against Staphylococcus aureus after 24 hr by agar plate method. Format: functional.
For assay [2], the system named is Escherichia coli. The experiment in a line: Antibacterial activity against Escherichia coli at 100 ug/disk after 24 hr by disk diffusion test. As to conditions: read-out: IZ.
The test system of assay [3] is Bacillus subtilis. The experiment in a line: Antibacterial activity against Bacillus subtilis at 100 ug/disk after 24 hr by disk diffusion test. As to conditions: read-out: IZ.
Assay [4] relates to Bacillus subtilis. The experiment in a line: Antibacterial activity against Bacillus subtilis after 24 hr by agar plate method. Format: functional.
For assay [5], the system named is Staphylococcus aureus. The experiment in a line: Antibacterial activity against Staphylococcus aureus at 100 ug/disc after 24 hr by disk diffusion test. As to conditions: read-out: IZ.
Assay [6] deals with Pseudomonas aeruginosa. The experiment in a line: Antibacterial activity against Pseudomonas aeruginosa at 100 ug/disk after 24 hr by disk diffusion test. As to conditions: read-out: IZ. In general terms: A growth-free zone around the sample is the usual read-out of agar diffusion tests.
The subject of assay [7] is Escherichia coli. The experiment in a line: Antibacterial activity against Escherichia coli after 24 hr by agar plate method. Format: functional.
For assay [8], the system named is Pseudomonas aeruginosa. The experiment in a line: Antibacterial activity against Pseudomonas aeruginosa after 24 hr by agar plate method. Type of assay: functional.
Assay [9] has as its system Aspergillus niger. The experiment in a line: Antifungal activity against Aspergillus niger at 100 ug/disk after 48 hr by disk diffusion test. To be noted: read-out: IZ. Format: functional.
The test system of assay [10] is Candida albicans. The experiment in a line: Antifungal activity against Candida albicans after 48 hr by agar plate method. Format: functional.
For assay [11], the system named is Aspergillus niger. The experiment in a line: Antifungal activity against Aspergillus niger after 48 hr by agar plate method. Format: functional.
Assay [12] has as its system Candida albicans. The experiment in a line: Antifungal activity against Candida albicans at 100 ug/disk after 48 hr by disk diffusion test. Type of assay: functional. As to conditions: read-out: IZ.
Assay [13] concerns Candida albicans. The experiment in a line: Antifungal activity against Candida albicans after 48 hr by disk diffusion test. Type of assay: functional.
The subject of assay [14] is Staphylococcus aureus. The experiment in a line: Antibacterial activity against Staphylococcus aureus after 24 hr by disk diffusion test. Format: functional.
Assay [15] relates to Aspergillus niger. The experiment in a line: Antifungal activity against Aspergillus niger after 48 hr by disk diffusion test. Format: functional.
Assay [16] has as its system Escherichia coli. The experiment in a line: Antibacterial activity against Escherichia coli after 24 hr by disk diffusion test. Format: functional.
The subject of assay [17] is Bacillus subtilis. The experiment in a line: Antibacterial activity against Bacillus subtilis after 24 hr by disk diffusion test. Format: functional.
Assay [18] deals with Pseudomonas aeruginosa. The experiment in a line: Antibacterial activity against Pseudomonas aeruginosa after 24 hr by disk diffusion test. Type of assay: functional.

In general, MIC refers to the lowest concentration that inhibits growth of the organism. Higher therefore signals weaker potency. With `O=C(O)c1cn(C2CC2)c2cc(N3CCNCC3)c(F)cc2c1=O` [CIPROFLOXACIN], the MIC against Staphylococcus aureus [1], in the assay with Bacillus subtilis [4], against Escherichia coli [7] and in the assay with Pseudomonas aeruginosa [8] was 3.12 µg/mL (≈ 9.43 µM) throughout. For the same molecule, the zone of inhibition at 100 µg/disc in the assay with Escherichia coli [2] is 32 mm; in the assay on Bacillus subtilis [3], 29 mm; in the assay on Staphylococcus aureus [5] it was 29 mm; in the assay on Pseudomonas aeruginosa [6], 33 mm.

On to `CC(=O)N1CCN(c2ccc(OCC3COC(Cn4ccnc4)(c4ccc(Cl)cc4Cl)O3)cc2)CC1` (centres undefined) [KETOCONAZOLE], for which the results for the zone of inhibition at 100 µg/disc with Aspergillus niger [9] and in the assay on Candida albicans [12] were 30 mm and 33 mm, respectively. In addition, the values for the MIC in the assay with Candida albicans [10] and against Aspergillus niger [11] were 3.12 µg/mL (≈ 5.88 µM) and 6.25 µg/mL (≈ 11.8 µM), respectively.

Consider `CCN1CCN(c2nc(Nc3ccccc3)nc(Oc3ccc4c(C)cc(=O)oc4c3)n2)CC1`, for which the “inhibition zone (IZ)” value in the assay on Candida albicans [13] was found to be 20 mm; with Staphylococcus aureus [14] it was 17 mm; with Aspergillus niger [15], 20 mm; with Escherichia coli [16], 16 mm; in the assay on Bacillus subtilis [17], 21 mm; with Pseudomonas aeruginosa [18], 21 mm. The MIC in the assay with Staphylococcus aureus [1] was 100 µg/mL (≈ 218 µM); in the assay on Candida albicans [10], 100 µg/mL (≈ 218 µM); against Aspergillus niger [11], 100 µg/mL (≈ 218 µM); with Bacillus subtilis [4], 50 µg/mL (≈ 109 µM); against Escherichia coli [7], 100 µg/mL (≈ 218 µM); in the assay with Pseudomonas aeruginosa [8], 100 µg/mL (≈ 218 µM).

Regarding `Cc1cc(=O)oc2cc(Oc3nc(Nc4ccccc4)nc(N4CCOCC4)n3)ccc12`, the “inhibition zone (IZ)” value came to 22 mm with Candida albicans [13]; 20 mm in the assay on Staphylococcus aureus [14]; 21 mm in the assay with Aspergillus niger [15]; 22 mm with Escherichia coli [16]; 20 mm in the assay with Bacillus subtilis [17]; 17 mm in the assay with Pseudomonas aeruginosa [18]. The MIC was found to be 100 µg/mL (≈ 232 µM) in the assay on Staphylococcus aureus [1]; 50 µg/mL (≈ 116 µM) against Candida albicans [10]; 50 µg/mL (≈ 116 µM) against Aspergillus niger [11]; 100 µg/mL (≈ 232 µM) against Bacillus subtilis [4]; 50 µg/mL (≈ 116 µM) in the assay on Escherichia coli [7]; 100 µg/mL (≈ 232 µM) in the assay with Pseudomonas aeruginosa [8].

For `O=c1cc(Oc2nc(Nc3ccccc3)nc(N3CCN(c4cccc(Cl)c4Cl)CC3)n2)c2ccccc2o1`, the “inhibition zone (IZ)” value with Candida albicans [13] is reported as 22 mm; in the assay on Staphylococcus aureus [14] it was 22 mm; with Aspergillus niger [15], 20 mm; with Escherichia coli [16], 21 mm; in the assay with Bacillus subtilis [17] it was 23 mm; in the assay on Pseudomonas aeruginosa [18] it was 23 mm. In addition, the MIC in the assay on Staphylococcus aureus [1] was 25 µg/mL (≈ 44.5 µM); against Candida albicans [10], 12.5 µg/mL (≈ 22.3 µM); in the assay on Aspergillus niger [11], 12.5 µg/mL (≈ 22.3 µM); in the assay with Bacillus subtilis [4] it was 12.5 µg/mL (≈ 22.3 µM); in the assay with Escherichia coli [7], 50 µg/mL (≈ 89.1 µM); in the assay on Pseudomonas aeruginosa [8] it was 12.5 µg/mL (≈ 22.3 µM).

For `O=c1cc(Oc2nc(Nc3ccccc3)nc(N3CCN(c4ccccc4)CC3)n2)c2ccccc2o1`, the “inhibition zone (IZ)” value in the assay on Candida albicans [13] was found to be 16 mm; with Staphylococcus aureus [14], 17 mm; in the assay with Aspergillus niger [15] it was 15 mm; with Escherichia coli [16] it was 16 mm; with Bacillus subtilis [17], 17 mm; in the assay with Pseudomonas aeruginosa [18], 15 mm. In addition, the MIC in the assay with Staphylococcus aureus [1], against Candida albicans [10], in the assay on Aspergillus niger [11], in the assay on Bacillus subtilis [4], in the assay on Escherichia coli [7] and in the assay with Pseudomonas aeruginosa [8] was 100 µg/mL (≈ 203 µM) in each case.

On to `Cc1cc(=O)oc2cc(Oc3nc(Nc4ccccc4)nc(N4CCN(C(C)C)CC4)n3)ccc12`, for which the “inhibition zone (IZ)” value was 19 mm in the assay with Candida albicans [13]; 19 mm in the assay with Staphylococcus aureus [14]; 19 mm with Aspergillus niger [15]; 18 mm in the assay on Escherichia coli [16]; 18 mm with Bacillus subtilis [17]; 18 mm in the assay with Pseudomonas aeruginosa [18]. For the same molecule, the MIC in the assay with Staphylococcus aureus [1], with Candida albicans [10], against Aspergillus niger [11], in the assay with Bacillus subtilis [4], in the assay with Escherichia coli [7] and in the assay on Pseudomonas aeruginosa [8] was 100 µg/mL (≈ 212 µM) in each case.

Regarding `O=c1cc(Oc2nc(Nc3ccccc3)nc(N3CCN(c4ccccn4)CC3)n2)c2ccccc2o1`, the “inhibition zone (IZ)” value in the assay on Candida albicans [13] was 21 mm; with Staphylococcus aureus [14], 23 mm; with Aspergillus niger [15] it was 20 mm; in the assay on Escherichia coli [16] it was 20 mm; in the assay on Bacillus subtilis [17] it was 21 mm; in the assay on Pseudomonas aeruginosa [18], 20 mm. In addition, the MIC stood at 12.5 µg/mL (≈ 25.3 µM) with Staphylococcus aureus [1]; 25 µg/mL (≈ 50.7 µM) in the assay with Candida albicans [10]; 12.5 µg/mL (≈ 25.3 µM) with Aspergillus niger [11]; 25 µg/mL (≈ 50.7 µM) against Bacillus subtilis [4]; 25 µg/mL (≈ 50.7 µM) with Escherichia coli [7]; 50 µg/mL (≈ 101 µM) with Pseudomonas aeruginosa [8].

The record behind these values is ChEMBL document CHEMBL3045112, “In vitro antimicrobial assessment of coumarin-based s-triazinyl piperazines” (2012).
